According to PubChem BioAssay (NCI):
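Values below derive from 48-hour exposures of cells grown in 96-well plates, with endpoints linearly interpolated between the two concentrations bracketing the appropriate inhibition level. Here, GI50 denotes the concentration required for 50% inhibition of growth. TGI denotes the concentration required for complete inhibition of growth.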

Tests used:
Assay in all cases: NCI-60 cell line screen, 48 h
SR leukemia = test system: SR leukemia
HOP-62 NSCLC = test system: HOP-62 NSCLC
OVCAR-5 ovarian = test system: OVCAR-5 ovarian
SNB-75 CNS = test system: SNB-75 CNS
A549 NSCLC = test system: A549 NSCLC
NCI-H460 lung = test system: NCI-H460 lung
COLO 205 colon = test system: COLO 205 colon
HOP-92 NSCLC = test system: HOP-92 NSCLC
SK-OV-3 ovarian = test system: SK-OV-3 ovarian
HCC-2998 colon = test system: HCC-2998 colon

SMILES | TGI (SR leukemia) [µM] | TGI (HOP-62 NSCLC) [µM] | TGI (OVCAR-5 ovarian) [µM] | TGI (SNB-75 CNS) [µM] | TGI (A549 NSCLC) [µM] | TGI (NCI-H460 lung) [µM] | TGI (COLO 205 colon) [µM] | TGI (HOP-92 NSCLC) [µM] | TGI (SK-OV-3 ovarian) [µM] | TGI (HCC-2998 colon) [µM] | GI50 (HCC-2998 colon) [µM] | GI50 (SR leukemia) [µM] | GI50 (HOP-62 NSCLC) [µM] | GI50 (OVCAR-5 ovarian) [µM] | GI50 (SNB-75 CNS) [µM] | GI50 (A549 NSCLC) [µM] | GI50 (NCI-H460 lung) [µM] | GI50 (COLO 205 colon) [µM] | GI50 (HOP-92 NSCLC) [µM] | GI50 (SK-OV-3 ovarian) [µM]
Cc1c(CCCl)c(=O)n2c([nH]c3ccccc32)c1C#N | > 10 | 3.21 | 4.43 | 2.78 | 3.53 | 3.96 | 0.28 | 2.82 | 3.84 | – | – | – | – | – | – | – | – | – | – | –
CC(=O)NC(CCCCNC(=O)OCc1ccccc1)C(=O)NCc1ccccc1 (centres undefined) | – | > 100 | > 100 | > 100 | > 100 | > 100 | > 100 | > 100 | > 100 | > 100 | – | – | – | – | – | – | – | – | – | –
O=C(Nc1ccccc1)c1ccc(Cl)c([N+](=O)[O-])c1 | – | > 100 | – | 71.6 | > 100 | 98.9 | 70 | – | 65 | – | – | – | – | – | – | – | – | – | – | –
CCN(CC)CCNc1c(OC)cc(C)c2sc3ccccc3c(=O)c12 | 5.33 | 25 | 13.4 | 28.7 | 18 | 18.9 | 5.02 | 32.2 | 31.3 | – | – | – | – | – | – | – | – | – | – | –
O=C(O)C1CCc2ccc3ccccc3c2C1c1cccc2ccccc12 (centres undefined) | 49.9 | 35.9 | 37.9 | 90.1 | 36.4 | 38.2 | 77.7 | 38.6 | > 100 | – | – | – | – | – | – | – | – | – | – | –
CC1CC(c2ccccc2)=Nc2ccccc2S1(=O)=O (centres undefined) | – | 39.8 | 35.7 | 35.9 | 55.6 | 34.9 | 40.9 | 48.7 | 36.4 | 19.5 | – | – | – | – | – | – | – | – | – | –
CCOC(=O)C(C)(C)Oc1ccc2c(=O)cc(-c3ccc(Cl)cc3)oc2c1 | > 100 | > 100 | – | > 100 | > 100 | > 100 | > 100 | – | – | > 100 | – | – | – | – | – | – | – | – | – | –
O=C(Oc1ccc(O)c2c(=O)n3c(cc12)[nH]c1ccccc13)c1ccccc1 | 82.2 | 54.5 | 73.2 | > 100 | 66.8 | > 100 | 45.3 | 53.4 | – | 36.9 | 18.6 | 25.9 | 22.4 | 28.4 | 28.3 | 24 | 81.7 | 19.9 | 23.8 | –
CCN(CC)c1ccc(N=Nc2ccc(-c3nc4cccnc4o3)cc2)cc1 | – | > 100 | > 100 | > 100 | > 100 | – | > 100 | > 100 | – | > 100 | – | – | – | – | – | – | – | – | – | –
CCCC(=O)c1c(NOC2OC(COC(C)=O)C(OC(C)=O)C(OC(C)=O)C2OC(C)=O)nc(OC)n(C)c1=O (centres undefined) | > 100 | > 100 | > 100 | > 100 | > 100 | > 100 | > 100 | – | – | > 100 | – | – | – | – | – | – | – | – | – | –
COc1ccc(/C=C/c2cc(OC)c(OC)c(OC)c2)cc1NC(=O)/C=C/c1ccc(F)cc1 | – | > 100 | > 100 | – | > 100 | > 100 | 6.71 | > 100 | 0.782 | > 28.2 | 1.94 | – | 3.84 | 5.97 | – | 3.41 | 3.09 | 2.43 | 4.36 | 0.0441
C=CCc1cc2cccc(OC)c2oc1=O | > 100 | > 100 | > 100 | > 100 | > 100 | > 100 | > 100 | > 100 | – | > 100 | – | – | – | – | – | – | – | – | – | –
CCN(CC)CCC1CC/C(=C\c2ccc(OC)cc2)C1=O (centres undefined) | > 100 | > 100 | > 100 | > 100 | > 100 | – | 38.9 | > 100 | – | > 100 | – | – | – | – | – | – | – | – | – | –
CC1(C)C=CC[C@]2(C)[C@H]3CC[C@@H]4[C@H]5[C@H](C(=O)/C=C/c6cccnc6)CC[C@]5(CO)CC[C@@]4(C)[C@]3(C)CC[C@@H]12 | 3.7 | 3.11 | 2.83 | – | 2.49 | 2.41 | 3.69 | 2.05 | 3.62 | – | – | 0.631 | 1.54 | 1.32 | – | 0.972 | 1.03 | 1.69 | 0.66 | 1.78
CCN(CC)CCn1c2c3ccccc3ccc2c2oc(=O)c3ccccc3c21 | > 100 | 80.3 | > 100 | 42.8 | > 100 | > 100 | > 100 | > 100 | > 100 | – | – | – | – | – | – | – | – | – | – | –
COP1(=O)CC2C(Cl)(Cl)C2(C)C1 (centres undefined) | – | > 100 | – | > 100 | > 100 | > 100 | > 100 | – | > 100 | > 100 | – | – | – | – | – | – | – | – | – | –

SMILES | TGI (SR leukemia) [µM] | TGI (HOP-62 NSCLC) [µM] | TGI (OVCAR-5 ovarian) [µM] | TGI (SNB-75 CNS) [µM] | TGI (A549 NSCLC) [µM] | TGI (NCI-H460 lung) [µM] | TGI (COLO 205 colon) [µM] | TGI (HOP-92 NSCLC) [µM] | TGI (SK-OV-3 ovarian) [µM] | TGI (HCC-2998 colon) [µM] | GI50 (HCC-2998 colon) [µM] | GI50 (SR leukemia) [µM] | GI50 (HOP-62 NSCLC) [µM] | GI50 (OVCAR-5 ovarian) [µM] | GI50 (SNB-75 CNS) [µM] | GI50 (A549 NSCLC) [µM] | GI50 (NCI-H460 lung) [µM] | GI50 (COLO 205 colon) [µM] | GI50 (HOP-92 NSCLC) [µM] | GI50 (SK-OV-3 ovarian) [µM]
S=C(Nc1ccc(-c2nc3ccccc3[nH]2)cc1)NC1CCCCC1 | 52.5 | > 100 | – | > 100 | – | – | > 100 | – | – | 32.4 | 16.4 | 10.9 | 55.7 | 42.4 | 25.1 | 40.3 | – | – | 35.3 | –
N#CC(C#N)=C(N)/C(C#N)=C\c1ccnc2ccccc12 | 58 | 56.5 | > 100 | 70.7 | > 100 | > 100 | > 100 | 88 | – | > 100 | – | – | – | – | – | – | – | – | – | –
CN(C)CCNc1nc2ccccc2c2c1c1c(n2Cc2ccccc2)-c2ccccc2C1=O | 20.9 | 37.2 | 27.8 | 28.9 | 46.6 | 26.7 | 65.3 | 21.2 | 45.1 | – | – | 2.85 | 18.1 | 12.3 | 14.4 | 14.6 | 10.5 | 16.6 | 6.19 | 20.3
Oc1ccc(Br)cc1Sc1cc(Br)ccc1O | 25.3 | 30.2 | 32.1 | 19.7 | 22 | 20 | 34.9 | – | 29.7 | – | – | 5.39 | 13.6 | 15.8 | 4.29 | 5.09 | 5.1 | 17.8 | – | 14.9
CC(=O)O/N=C/c1ncccc1CO | > 100 | > 100 | > 100 | > 100 | > 100 | > 100 | > 100 | > 100 | > 100 | – | – | – | – | – | – | – | – | – | – | –
Cc1cc2nc3c(=O)n(C)c(=O)nc-3n(-c3ccc(Cl)cc3)c2cc1C | – | 65.1 | 32.6 | 24.4 | 16.4 | 10.6 | 9.76 | 34 | 67.4 | 20.4 | – | – | – | – | – | – | – | – | – | –
CC(=O)CC1CCC(=O)CCC(=O)OC(CC(C)=O)CCC(=O)CCC(=O)O1 (centres undefined) | – | > 100 | > 100 | > 100 | > 100 | > 100 | > 100 | > 100 | > 100 | > 100 | – | – | – | – | – | – | – | – | – | –
O=C(Nc1ccc(Cl)cc1)Nc1ccc(Cl)c(Cl)c1 | – | > 100 | > 100 | > 100 | > 100 | 12.6 | 3.42 | 5.46 | – | 44.5 | 3.9 | – | 4.7 | 4.29 | 2.59 | 4.58 | 2.77 | 1.85 | 1.62 | –
c1cnc2c(c1)-n1cccc1C1(CCSCC1)NN2 | > 100 | > 100 | > 100 | > 100 | > 100 | > 100 | > 100 | – | – | > 100 | – | – | – | – | – | – | – | – | – | –
CC(C)c1ccc(Cc2cnc(NC(=O)c3cc(Br)cs3)s2)cc1 | – | 29.2 | > 100 | 7.76 | > 100 | > 100 | 15 | 87.5 | 95.7 | > 100 | 3.65 | – | 3.05 | 4.95 | 1.05 | 3.65 | 3.3 | 2.92 | 5.51 | 6.06
C=CCNC(=S)N1CC(C)C(=O)Nc2ccccc21 (centres undefined) | > 100 | > 100 | > 100 | > 100 | > 100 | > 100 | > 100 | – | – | – | – | – | – | – | – | – | – | – | – | –
CC(=O)Oc1cc(C)ccc1[C@]1(C)CC[C@H](C)/C1=C\Br | 12.8 | 22.2 | 19.5 | – | 17.3 | 15.2 | 5.33 | 12.9 | 7.65 | – | – | 2.72 | 9.22 | 6.9 | – | 4.98 | 4.17 | 2.3 | 2.03 | 2.43
O=C1C=C(c2c(O)ccc3ccccc23)c2ccccc2C1=O | – | 33.5 | 25 | 12.9 | 25.7 | 26.8 | 21.7 | 5.09 | 23.9 | 26.5 | – | – | – | – | – | – | – | – | – | –
N#CCCc1nc2ccc(Br)cc2c(=O)n1CCO | – | > 100 | – | > 100 | > 100 | – | > 100 | > 100 | > 100 | > 100 | – | – | – | – | – | – | – | – | – | –
COc1cc(-c2nc3ccc(C)cc3[nH]2)ccc1OCC(=O)N=Nc1c(O)[nH]c2ccccc12 | – | – | 4.19 | 2.91 | – | 3.73 | – | 3.28 | – | 3.31 | 1.86 | – | – | 1.83 | 1.07 | – | 1.85 | – | 1.56 | –
